Measurements reported in patent publication US9408921B2, “Antineoplastic hydrogels, and enzyme-instructed preparations thereof” (Brandeis University, priority 2009, dated 2016).
“And” between values parts separate entries of the source, which are not always exact repeats. Equal values may be shown once. “Also recorded” adds a separate entry of the source. Where a SMILES comes first, the peptide text is derived from it. [ ]: non-standard residue; d: D form. The star is where a group is joined. Paclitaxel(2'-O-succinyl) = CC(=O)O[C@H]1C(=O)[C@@]2(C)[C@H]([C@H](OC(=O)c3ccccc3)[C@]3(O)C[C@H](OC(=O)[C@H](OC(=O)CCC(=O)*)[C@@H](NC(=O)c4ccccc4)c4ccccc4)C(C)=C1C3(C)C)[C@]1(OC(C)=O)CO[C@@H]1C[C@@H]2O; Acetyl(2-naphthyl) = O=C(Cc1ccc2ccccc2c1)*; pY = N[C@@H](Cc1ccc(OP(=O)(O)O)cc1)C(=O)O

Experiments:
[1] = test system: HeLa cells; assay: cytotoxicity against HeLa cells
Text: To evaluate the activity of 5a, it was used to treat HeLa cells; paclitaxel (1) was used as the control.

[2] = solubility; assay type: physicochemical
[3] = stability in water and in gel state; assay type: physicochemical
Text: Nicolaou, K. C.; Guy, R. K.; Pitsinos, E. N.; Wrasidlo, W. Angew. Chem. Intl. Ed.

## CC(=O)O[C@H]1C(=O)[C@@]2(C)[C@H]([C@H](OC(=O)c3ccccc3)[C@]3(O)C[C@H](OC(=O)[C@H](OC(=O)CCC(=O)NCCCC[C@H](NC(=O)[C@H](Cc4ccccc4)NC(=O)[C@H](Cc4ccccc4)NC(=O)Cc4ccc5ccccc5c4)C(=O)N[C@@H](Cc4ccc(OP(=O)(O)O)cc4)C(=O)O)[C@@H](NC(=O)c4ccccc4)c4ccccc4)C(C)=C1C3(C)C)[C@]1(OC(C)=O)CO[C@@H]1C[C@@H]2O [Compound 5a] ({Acetyl(2-naphthyl)}-FFK(Paclitaxel(2'-O-succinyl))[pY]-OH)
[1]; HeLa cells, 48 h of incubation
  IC50: 0.00997 ± 0.00205 µM
[2]; 100 mM phosphate buffered saline (PBS) solution
  solubility: 7600 µg/mL and 4260 µM
[3]; in water, without a phosphatase
  stability in water: hardly any dephosphorylation over months

## CC(=O)O[C@H]1C(=O)[C@@]2(C)[C@H]([C@H](OC(=O)c3ccccc3)[C@]3(O)C[C@H](OC(=O)[C@H](OC(=O)CCC(=O)NCCCC[C@H](NC(=O)[C@H](Cc4ccccc4)NC(=O)[C@H](Cc4ccccc4)NC(=O)Cc4ccc5ccccc5c4)C(=O)N[C@@H](Cc4ccc(O)cc4)C(=O)O)[C@@H](NC(=O)c4ccccc4)c4ccccc4)C(C)=C1C3(C)C)[C@]1(OC(C)=O)CO[C@@H]1C[C@@H]2O [Compound 5b] ({Acetyl(2-naphthyl)}-FFK(Paclitaxel(2'-O-succinyl))Y-OH)
[1]; HeLa cells, 48 h of incubation
  IC50: 0.0514 ± 0.00769 µM
[2]; in water
  solubility: 21.6 µg/mL and 12.7 µM
[3]; gel state, mass spectroscopic (MS) analysis
  stability in gel state: stable in gel state over weeks

## NCCCC[C@H](NC(=O)[C@H](Cc1ccccc1)NC(=O)[C@H](Cc1ccccc1)NC(=O)Cc1ccc2ccccc2c1)C(=O)N[C@@H](Cc1ccc(OP(=O)(O)O)cc1)C(=O)O [Compound 4, NapFFKYp] ({Acetyl(2-naphthyl)}-FFK[pY]-OH)
[1]; HeLa cells
  cytotoxicity in words: essentially biocompatible; also recorded: very limited toxicity
[1]; HeLa cells, 48 h, highest concentration tested 500 μM
  IC50: > 500 µM

## CC(=O)O[C@H]1C(=O)[C@@]2(C)[C@H]([C@H](OC(=O)c3ccccc3)[C@]3(O)C[C@H](OC(=O)[C@H](O)[C@@H](NC(=O)c4ccccc4)c4ccccc4)C(C)=C1C3(C)C)[C@]1(OC(C)=O)CO[C@@H]1C[C@@H]2O [Compound 1, Paclitaxel, reference compound]
[1]; Homo sapiens, HeLa, 48 h
  IC50: 0.0473 ± 0.00299 µM
